From PubChem BioAssay (NCI)
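Interpolation was linear, between the two tested concentrations surrounding the appropriate level; five concentrations were tested over 48 hours in 96-well plates. GI50 = concentration required for 50% inhibition of growth. TGI is the concentration that stops growth completely.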

Columns and labels:
Assay in all cases: growth of human tumour cells (NCI), 48 h
786-0 renal = system: 786-0 renal
A498 renal = system: A498 renal
A549 NSCLC = system: A549 NSCLC
ACHN renal = system: ACHN renal
BT-549 breast = system: BT-549 breast
CAKI-1 renal = system: CAKI-1 renal
CCRF-CEM leukemia = system: CCRF-CEM leukemia
COLO 205 colon = system: COLO 205 colon
DU-145 prostate = system: DU-145 prostate
EKVX NSCLC = system: EKVX NSCLC
HCC-2998 colon = system: HCC-2998 colon
HCT-116 colon = system: HCT-116 colon
HCT-15 colon = system: HCT-15 colon
HL-60(TB) leukemia = system: HL-60(TB) leukemia
HOP-62 NSCLC = system: HOP-62 NSCLC
HOP-92 NSCLC = system: HOP-92 NSCLC
HS 578T breast = system: HS 578T breast
HT29 colon = system: HT29 colon
IGROV1 ovarian = system: IGROV1 ovarian
K-562 leukemia = system: K-562 leukemia
KM12 colon = system: KM12 colon
LOX IMVI melanoma = system: LOX IMVI melanoma
M14 melanoma = system: M14 melanoma
MALME-3M melanoma = system: MALME-3M melanoma
MCF7 breast = system: MCF7 breast
MDA-MB-231 breast = system: MDA-MB-231 breast
MDA-MB-435 = system: MDA-MB-435
MOLT-4 leukemia = system: MOLT-4 leukemia
NCI-H226 lung = system: NCI-H226 lung
NCI-H23 lung = system: NCI-H23 lung
NCI-H460 lung = system: NCI-H460 lung
NCI-H522 lung = system: NCI-H522 lung
NCI/ADR-RES ovarian = system: NCI/ADR-RES ovarian
OVCAR-3 ovarian = system: OVCAR-3 ovarian
OVCAR-4 ovarian = system: OVCAR-4 ovarian
OVCAR-5 ovarian = system: OVCAR-5 ovarian
OVCAR-8 ovarian = system: OVCAR-8 ovarian
PC-3 prostate = system: PC-3 prostate
RPMI-8226 leukemia = system: RPMI-8226 leukemia
RXF 393 renal = system: RXF 393 renal
SF-268 CNS = system: SF-268 CNS
SF-295 CNS = system: SF-295 CNS
SF-539 CNS = system: SF-539 CNS
SK-MEL-2 melanoma = system: SK-MEL-2 melanoma
SK-MEL-5 melanoma = system: SK-MEL-5 melanoma
SK-OV-3 ovarian = system: SK-OV-3 ovarian
SN12C renal = system: SN12C renal
SNB-19 CNS = system: SNB-19 CNS
SNB-75 CNS = system: SNB-75 CNS
SR leukemia = system: SR leukemia
SW-620 colon = system: SW-620 colon
T-47D breast = system: T-47D breast
TK-10 renal = system: TK-10 renal
U251 CNS = system: U251 CNS
UACC-257 melanoma = system: UACC-257 melanoma
UACC-62 melanoma = system: UACC-62 melanoma
UO-31 renal = system: UO-31 renal

Clc1ccc(CNc2ccc3nc(CCC4CCCCC4)[nH]c3c2)cc1
GI50 (786-0 renal): 2.03 µM
TGI (786-0 renal): 4.4 µM
GI50 (A498 renal): 1.36 µM
TGI (A498 renal): 3.4 µM
GI50 (A549 NSCLC): 3.14 µM
TGI (A549 NSCLC): > 100 µM
GI50 (ACHN renal): 3.03 µM
TGI (ACHN renal): 11.2 µM
GI50 (BT-549 breast): 2.14 µM
TGI (BT-549 breast): 7.24 µM
GI50 (CAKI-1 renal): 2.46 µM
TGI (CAKI-1 renal): 6.53 µM
GI50 (CCRF-CEM leukemia): 3.27 µM
TGI (CCRF-CEM leukemia): > 100 µM
GI50 (COLO 205 colon): 1.93 µM
TGI (COLO 205 colon): 3.73 µM
GI50 (DU-145 prostate): 3.7 µM
TGI (DU-145 prostate): 23.2 µM
GI50 (EKVX NSCLC): 2.2 µM
TGI (EKVX NSCLC): 7.06 µM
GI50 (HCC-2998 colon): 1.81 µM
TGI (HCC-2998 colon): 3.41 µM
GI50 (HCT-116 colon): 1.93 µM
TGI (HCT-116 colon): 4.96 µM
GI50 (HCT-15 colon): 1.83 µM
TGI (HCT-15 colon): 5.64 µM
GI50 (HL-60(TB) leukemia): 2.03 µM
TGI (HL-60(TB) leukemia): 4.7 µM
GI50 (HOP-62 NSCLC): 2.01 µM
TGI (HOP-62 NSCLC): 4.16 µM
GI50 (HOP-92 NSCLC): 1.47 µM
TGI (HOP-92 NSCLC): 3.8 µM
GI50 (HS 578T breast): 2.12 µM
TGI (HS 578T breast): 6.37 µM
GI50 (HT29 colon): 1.9 µM
TGI (HT29 colon): 4.66 µM
GI50 (IGROV1 ovarian): 3 µM
TGI (IGROV1 ovarian): 36.9 µM
GI50 (K-562 leukemia): 2.09 µM
TGI (K-562 leukemia): 5.02 µM
GI50 (KM12 colon): 2.49 µM
TGI (KM12 colon): 7 µM
GI50 (LOX IMVI melanoma): 1.7 µM
TGI (LOX IMVI melanoma): 3.1 µM
GI50 (M14 melanoma): 1.93 µM
TGI (M14 melanoma): 3.95 µM
GI50 (MALME-3M melanoma): 1.77 µM
TGI (MALME-3M melanoma): 4.08 µM
GI50 (MCF7 breast): 1.8 µM
TGI (MCF7 breast): 4.63 µM
GI50 (MDA-MB-231 breast): 1.64 µM
TGI (MDA-MB-231 breast): 3.18 µM
GI50 (MDA-MB-435): 1.88 µM
TGI (MDA-MB-435): 4.1 µM
GI50 (MOLT-4 leukemia): 2.52 µM
TGI (MOLT-4 leukemia): 8.23 µM
GI50 (NCI-H226 lung): 1.76 µM
TGI (NCI-H226 lung): 4.16 µM
GI50 (NCI-H23 lung): 2.07 µM
TGI (NCI-H23 lung): 4.94 µM
GI50 (NCI-H460 lung): 2.15 µM
TGI (NCI-H460 lung): 4.82 µM
GI50 (NCI-H522 lung): 1.71 µM
TGI (NCI-H522 lung): 3.95 µM
GI50 (NCI/ADR-RES ovarian): 2.5 µM
TGI (NCI/ADR-RES ovarian): 7.97 µM
GI50 (OVCAR-3 ovarian): 3.02 µM
TGI (OVCAR-3 ovarian): 12.2 µM
GI50 (OVCAR-4 ovarian): 3.5 µM
TGI (OVCAR-4 ovarian): 90.7 µM
GI50 (OVCAR-5 ovarian): 2.39 µM
TGI (OVCAR-5 ovarian): 6.68 µM
GI50 (OVCAR-8 ovarian): 3.18 µM
TGI (OVCAR-8 ovarian): 19.9 µM
GI50 (PC-3 prostate): 2.66 µM
TGI (PC-3 prostate): 10.9 µM
GI50 (RPMI-8226 leukemia): 2.09 µM
TGI (RPMI-8226 leukemia): 5.02 µM
GI50 (RXF 393 renal): 1.97 µM
TGI (RXF 393 renal): 4.95 µM
GI50 (SF-268 CNS): 3.13 µM
TGI (SF-268 CNS): 29.9 µM
GI50 (SF-295 CNS): 1.96 µM
TGI (SF-295 CNS): 4.07 µM
GI50 (SF-539 CNS): 2.14 µM
TGI (SF-539 CNS): 4.83 µM
GI50 (SK-MEL-2 melanoma): 2.24 µM
TGI (SK-MEL-2 melanoma): 5.12 µM
GI50 (SK-MEL-5 melanoma): 1.69 µM
TGI (SK-MEL-5 melanoma): 3.09 µM
GI50 (SK-OV-3 ovarian): 2.32 µM
TGI (SK-OV-3 ovarian): 5.95 µM
GI50 (SN12C renal): 2.76 µM
TGI (SN12C renal): 11.5 µM
GI50 (SNB-19 CNS): 3.12 µM
TGI (SNB-19 CNS): 14.8 µM
GI50 (SNB-75 CNS): 1.91 µM
TGI (SNB-75 CNS): 5.81 µM
GI50 (SR leukemia): 3.15 µM
TGI (SR leukemia): 9.92 µM
GI50 (SW-620 colon): 1.78 µM
TGI (SW-620 colon): 3.7 µM
GI50 (T-47D breast): 2.24 µM
TGI (T-47D breast): 6.55 µM
GI50 (TK-10 renal): 2.61 µM
TGI (TK-10 renal): 7.87 µM
GI50 (U251 CNS): 1.73 µM
TGI (U251 CNS): 3.47 µM
GI50 (UACC-257 melanoma): 2.3 µM
TGI (UACC-257 melanoma): 6.3 µM
GI50 (UACC-62 melanoma): 1.76 µM
TGI (UACC-62 melanoma): 3.41 µM
GI50 (UO-31 renal): 1.49 µM
TGI (UO-31 renal): 3.29 µM
